# How the values were obtained:
# Format in all cases: functional
# Enterococcus faecalis [1] = assay: Antimicrobial activity against Enterococcus faecalis GC 2242 (VRE); Not active; 0.5-128
# Escherichia coli [2] = assay: Antimicrobial activity against Escherichia coli GC 4560; Not active; 0.5-128
# Enterococcus faecalis [3] = assay: Antimicrobial activity against Enterococcus faecalis GC 4555 (ATCC); Not active; 0.5-128
# [4] = Inhibitory activity against MurB
# Staphylococcus aureus [5] = assay: Antimicrobial activity against Staphylococcus aureus GC 1131 (MRSA); Not active; 0.5-128
# Staphylococcus aureus [6] = assay: Antimicrobial activity against Staphylococcus aureus GC 2216 (ATCC); Not active; 0.5-128
# Staphylococcus = assay: Antimicrobial activity against MSCNS (methicillin-susceptible coagulase-negative staphylococci) GC 646; Not active; 0.5-128
# Staphylococcus aureus [7] = assay: Antimicrobial activity against Staphylococcus aureus GC 4543 (MSSA); Not active; 0.5-128
# Streptococcus pneumoniae [8] = assay: Antimicrobial activity against Streptococcus pneumoniae GC1894 (PRSP) in the presence of 4% bovine serum albumin; Not active; 0.5-128
# Streptococcus pneumoniae [9] = assay: Antimicrobial activity against Streptococcus pneumoniae GC1894 (PRSP); Not active; 0.5-128
# Escherichia coli [10] = assay: Antimicrobial activity against Escherichia coli GC 4559; Not active
# Enterococcus faecalis [11] = assay: Antimicrobial activity against Enterococcus faecalis GC 2242 (VRE)
# Escherichia coli [12] = assay: Antimicrobial activity against Escherichia coli GC 4559
# Escherichia coli [13] = assay: Antimicrobial activity against Escherichia coli GC 4560
# Enterococcus faecalis [14] = assay: Antimicrobial activity against Enterococcus faecalis GC 4555 (ATCC)
# [15] = Inhibitory activity against MurA from Escherichia coli
# [16] = Inhibitory activity against MurB from Escherichia coli
# [17] = Inhibitory activity against MurB from Staphylococcus aureus
# [18] = Antimicrobial activity against MSCNS (methicillin-susceptible coagulase-negative staphylococci) GC 646; settings: Staphylococcus
# Staphylococcus aureus [19] = assay: Antimicrobial activity against Staphylococcus aureus GC 1131 (MRSA)
# Staphylococcus aureus [20] = assay: Antimicrobial activity against Staphylococcus aureus GC 2216 (ATCC)
# Staphylococcus aureus [21] = assay: Antimicrobial activity against Staphylococcus aureus GC 4543 (MSSA)
# Streptococcus pneumoniae [22] = assay: Antimicrobial activity against Streptococcus pneumoniae GC1894 (PRSP) in the presence of 4% bovine serum albumin
# Streptococcus pneumoniae [23] = assay: Antimicrobial activity against Streptococcus pneumoniae GC1894 (PRSP)
smiles,measurement,setting,value
COC(=O)c1sccc1NC(=O)Nc1ccc(Cl)c(Cl)c1,MIC,Enterococcus faecalis [1],> 128 µg/mL
same,MIC,Escherichia coli [2],> 128 µg/mL
same,MIC,Enterococcus faecalis [3],> 128 µg/mL
same,IC50,[4],18 µg/mL
same,MIC,Staphylococcus aureus [5],> 128 µg/mL
same,MIC,Staphylococcus aureus [6],> 128 µg/mL
same,MIC,Staphylococcus,> 128 µg/mL
same,MIC,Staphylococcus aureus [7],> 128 µg/mL
same,MIC,Streptococcus pneumoniae [8],> 128 µg/mL
same,MIC,Streptococcus pneumoniae [9],> 128 µg/mL
same,MIC,Escherichia coli [10],> 128 µg/mL
CC(C)(C)c1nc(NC(=O)Nc2cccnc2)sc1C#N,MIC,Enterococcus faecalis [11],> 128 µg/mL
same,MIC,Escherichia coli [12],> 128 µg/mL
same,MIC,Escherichia coli [13],> 128 µg/mL
same,MIC,Enterococcus faecalis [14],> 128 µg/mL
same,IC50,[15],25 µg/mL
same,IC50,[16],25 µg/mL
same,IC50,[17],25 µg/mL
same,MIC,[18],> 128 µg/mL
same,MIC,Staphylococcus aureus [19],> 128 µg/mL
same,MIC,Staphylococcus aureus [20],> 128 µg/mL
same,MIC,Staphylococcus aureus [21],> 128 µg/mL
same,MIC,Streptococcus pneumoniae [22],> 128 µg/mL
same,MIC,Streptococcus pneumoniae [23],> 128 µg/mL
N#Cc1sc(NC(=O)Nc2ccc(Cl)c(Cl)c2)nc1Cl,MIC,Enterococcus faecalis [11],0.25 µg/mL
same,MIC,Escherichia coli [12],> 128 µg/mL
same,MIC,Escherichia coli [13],0.5 µg/mL
same,MIC,Enterococcus faecalis [14],0.5 µg/mL
same,IC50,[15],> 25 µg/mL
same,IC50,[16],> 25 µg/mL
same,IC50,[17],> 25 µg/mL
same,MIC,[18],0.5 µg/mL
same,MIC,Staphylococcus aureus [19],0.5 µg/mL
same,MIC,Staphylococcus aureus [20],0.25 µg/mL
same,MIC,Staphylococcus aureus [21],0.25 µg/mL
same,MIC,Streptococcus pneumoniae [22],> 128 µg/mL
same,MIC,Streptococcus pneumoniae [23],< 0.12 µg/mL
CCOc1nc(NC(=O)Nc2ccc(Cl)c(Cl)c2)sc1C#N,MIC,Enterococcus faecalis [11],0.5 µg/mL
same,MIC,Escherichia coli [12],> 128 µg/mL
same,MIC,Escherichia coli [13],0.5 µg/mL
same,MIC,Enterococcus faecalis [14],> 128 µg/mL
same,IC50,[15],> 25 µg/mL
same,IC50,[16],23 µg/mL
same,MIC,[18],0.5 µg/mL
same,MIC,Staphylococcus aureus [19],1 µg/mL
same,MIC,Staphylococcus aureus [20],0.5 µg/mL
same,MIC,Staphylococcus aureus [21],0.5 µg/mL
same,MIC,Streptococcus pneumoniae [22],128 µg/mL
same,MIC,Streptococcus pneumoniae [23],< 0.12 µg/mL
N#Cc1cnc(NC(=O)NCc2ccc(Cl)c(Cl)c2)s1,MIC,Enterococcus faecalis [11],64 µg/mL
same,MIC,Escherichia coli [12],> 128 µg/mL
same,MIC,Escherichia coli [13],> 128 µg/mL
same,MIC,Enterococcus faecalis [14],> 128 µg/mL
same,IC50,[15],> 25 µg/mL
same,IC50,[16],> 25 µg/mL
same,IC50,[17],24 µg/mL
same,MIC,[18],> 128 µg/mL
same,MIC,Staphylococcus aureus [19],> 128 µg/mL
same,MIC,Staphylococcus aureus [20],> 128 µg/mL
same,MIC,Staphylococcus aureus [21],> 128 µg/mL
same,MIC,Streptococcus pneumoniae [22],128 µg/mL
same,MIC,Streptococcus pneumoniae [23],64 µg/mL
CC(C)(C)c1nc(NC(=O)Nc2ccc(F)c(F)c2)sc1C#N,MIC,Enterococcus faecalis [11],0.5 µg/mL
same,MIC,Escherichia coli [12],> 128 µg/mL
same,MIC,Escherichia coli [13],1 µg/mL
same,MIC,Enterococcus faecalis [14],1 µg/mL
same,IC50,[15],> 25 µg/mL
same,IC50,[16],> 25 µg/mL
same,MIC,[18],0.5 µg/mL
same,MIC,Staphylococcus aureus [19],< 0.12 µg/mL
same,MIC,Staphylococcus aureus [20],< 0.12 µg/mL
same,MIC,Staphylococcus aureus [21],< 0.12 µg/mL
same,MIC,Streptococcus pneumoniae [22],128 µg/mL
same,MIC,Streptococcus pneumoniae [23],< 0.12 µg/mL
CC(C)(C)c1nc(NC(=O)Nc2ccc(Cl)c(Cl)c2)sc1C#N,MIC,Enterococcus faecalis [11],< 0.12 µg/mL
same,MIC,Escherichia coli [12],> 128 µg/mL
same,MIC,Escherichia coli [13],0.5 µg/mL
same,MIC,Enterococcus faecalis [14],0.25 µg/mL
same,IC50,[15],3.3 µg/mL
same,IC50,[16],6.2 µg/mL
same,IC50,[17],2.8 µg/mL
same,MIC,[18],< 0.12 µg/mL
same,MIC,Staphylococcus aureus [19],< 0.12 µg/mL
same,MIC,Staphylococcus aureus [20],< 0.12 µg/mL
same,MIC,Staphylococcus aureus [21],< 0.12 µg/mL
same,MIC,Streptococcus pneumoniae [22],128 µg/mL
same,MIC,Streptococcus pneumoniae [23],< 0.12 µg/mL
CC(C)(C)c1nc(NC(=O)OCc2ccc(Cl)c(Cl)c2)sc1C#N,MIC,Enterococcus faecalis [11],1 µg/mL
same,MIC,Escherichia coli [12],> 128 µg/mL
same,MIC,Escherichia coli [13],> 128 µg/mL
same,MIC,Enterococcus faecalis [14],2 µg/mL
same,IC50,[15],25 µg/mL
same,IC50,[16],18 µg/mL
same,MIC,[18],> 128 µg/mL
same,MIC,Staphylococcus aureus [19],2 µg/mL
same,MIC,Staphylococcus aureus [20],8 µg/mL
same,MIC,Staphylococcus aureus [21],1 µg/mL
same,MIC,Streptococcus pneumoniae [22],> 128 µg/mL
same,MIC,Streptococcus pneumoniae [23],0.25 µg/mL
N#Cc1cnc(NC(=O)OCc2ccc(Cl)c(Cl)c2)s1,MIC,Enterococcus faecalis [11],64 µg/mL
same,MIC,Escherichia coli [12],> 128 µg/mL
same,MIC,Escherichia coli [13],> 128 µg/mL
same,MIC,Enterococcus faecalis [14],64 µg/mL
same,IC50,[15],> 25 µg/mL
same,IC50,[16],> 25 µg/mL
same,IC50,[17],24 µg/mL
same,MIC,[18],> 128 µg/mL
same,MIC,Staphylococcus aureus [19],> 128 µg/mL
same,MIC,Staphylococcus aureus [20],> 128 µg/mL
same,MIC,Staphylococcus aureus [21],> 128 µg/mL
same,MIC,Streptococcus pneumoniae [22],> 128 µg/mL
same,MIC,Streptococcus pneumoniae [23],128 µg/mL
CC(C)(C)c1nc(NC(=O)Nc2cccc(C#N)c2)sc1C#N,MIC,Enterococcus faecalis [11],8 µg/mL
same,MIC,Escherichia coli [12],> 128 µg/mL
same,MIC,Escherichia coli [13],> 128 µg/mL
same,MIC,Enterococcus faecalis [14],16 µg/mL
same,IC50,[15],> 25 µg/mL
same,IC50,[16],> 25 µg/mL
same,IC50,[17],> 25 µg/mL
same,MIC,[18],> 128 µg/mL
same,MIC,Staphylococcus aureus [19],> 128 µg/mL
same,MIC,Staphylococcus aureus [20],> 128 µg/mL
same,MIC,Staphylococcus aureus [21],> 128 µg/mL
same,MIC,Streptococcus pneumoniae [22],> 128 µg/mL
same,MIC,Streptococcus pneumoniae [23],8 µg/mL

# From ChEMBL document CHEMBL1137071, “Phenyl thiazolyl urea and carbamate derivatives as new inhibitors of bacterial cell-wall biosynthesis” (Bioorg Med Chem Lett, 2004)
